How the values were obtained:
[1] = tested on: pigweed; test: Test B pre/postemergence pigweed; type: in vivo, Amaranthus retroflexus
How it was run: (§1)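 Test chemicals in a non-phytotoxic solvent mixture with surfactant were sprayed preemergence onto planted seeds and postemergence onto plants 2 to 18 cm tall (1- to 4-leaf stage). After twelve to sixteen days in a greenhouse, injury was visually rated against untreated controls from 0 (no effect) to 10 (complete control).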

[2] = tested on: sugar beet; test: Test B pre/postemergence sugar beet; type: in vivo, Beta vulgaris
How it was run: as §1

[3] = tested on: cocklebur; test: Test B pre/postemergence cocklebur; type: in vivo, Xanthium strumarium
How it was run: as §1

[4] = tested on: giant foxtail; test: Test B pre/postemergence giant foxtail; type: in vivo, Setaria faberii
How it was run: as §1

[5] = tested on: rice; test: Test B flood test rice; type: in vivo, Oryza sativa
Method: (§2) At the same time, these crop and weed species were also treated with postemergence applications of test chemicals formulated in the same manner. Plants ranged in height from 2 to 18 cm (1- to 4-leaf stage) for postemergence treatments. Plant species in the flood test consisted of rice (Oryza sativa), smallflower flatsedge (Cyperus difformis), duck salad (Heteranthera limosa) and bamyardgrass (Echinochloa crus-galli) grown to the 2-leaf stage for testing. Treated plants and controls were maintained in a greenhouse for twelve to sixteen days, after which all species were compared to controls and visually evaluated. Plant response ratings, summarized in Table B, are based on a scale of 0 to 10 where 0 is no effect and 10 is complete control. A dash (−) response means no test result.

[6] = tested on: purple nutsedge; test: Test B pre/postemergence purple nutsedge; type: in vivo, Cyperus rotundus
How it was run: as §1

[7] = tested on: velvetleaf; test: Test B pre/postemergence velvetleaf; type: in vivo, Abutilon theophrasti
How it was run: as §1

[8] = tested on: soybean; test: Test B pre/postemergence soybean; type: in vivo, Glycine max
How it was run: as §1

[9] = tested on: blackgrass; test: Test B pre/postemergence blackgrass; type: in vivo, Alopecurus myosuroides
How it was run: as §1

[10] = tested on: surinam grass; test: Test B pre/postemergence surinam grass; type: in vivo, Brachiaria decumbens
How it was run: as §1

[11] = tested on: duck salad; test: Test B flood test duck salad; type: in vivo, Heteranthera limosa
How it was run: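 Flood test on plants grown to the 2-leaf stage; treated plants kept in greenhouse twelve to sixteen days, then visually rated against controls on a 0 (no effect) to 10 (complete control) scale.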

[12] = tested on: rape; test: Test B pre/postemergence rape; type: in vivo, Brassica napus
How it was run: as §1

[13] = tested on: corn; test: Test B pre/postemergence corn; type: in vivo, Zea mays
How it was run: as §1

[14] = tested on: morningglory; test: Test B pre/postemergence morningglory; type: in vivo, Ipomoea hederacea
How it was run: as §1

[15] = tested on: bedstraw; test: Test B pre/postemergence bedstraw; type: in vivo, Galium aparine
How it was run: as §1

[16] = tested on: wheat; test: Test B pre/postemergence wheat; type: in vivo, Triticum aestivum
How it was run: as §1

[17] = tested on: crabgrass; test: Test B pre/postemergence crabgrass; type: in vivo, Digitaria sanguinalis
How it was run: as §1

[18] = tested on: wild oat; test: Test B pre/postemergence wild oat; type: in vivo, Avena fatua
How it was run: as §1

[19] = tested on: bamyardgrass; test: Test B flood test barnyardgrass; type: in vivo, Echinochloa crus-galli
Method: as §2

[20] = tested on: smallflower flatsedge; test: Test B flood test smallflower flatsedge; type: in vivo, Cyperus difformis
Method: as §2

[21] = Postemergence, Rate 62 g/ha, scale 0 to 10, 0 is no effect, 10 is complete control
[22] = Postemergence, Rate 250 g/ha, scale 0 to 10, 0 no effect, 10 complete control
[23] = Preemergence, Rate 62 g/ha, scale 0 to 10, 0 is no effect, 10 is complete control
[24] = Preemergence, Rate 125 g/ha, scale 0 to 10 (0 no effect, 10 complete control)
[25] = Preemergence, Rate 250 g/ha, scale of 0 to 10 where 0 is no effect and 10 is complete control
[26] = Preemergence, Rate 500 g/ha, scale 0 (no effect) to 10 (complete control)
[27] = Rate 125 g/ha, Postemergence, scale 0 to 10, 0 no effect, 10 complete control
[28] = Rate 500 g/ha, Postemergence, scale 0 to 10, 0 no effect, 10 complete control
[29] = Rate 125 g/ha, Postemergence section (flood test species), scale 0 to 10, 0 no effect, 10 complete control
[30] = Rate 500 g/ha, listed under Postemergence (flood test species), scale 0 to 10, 0 no effect, 10 complete control
[31] = flood test, listed under Postemergence, Rate 250 g/ha, scale 0 to 10, 0 no effect, 10 complete control
[32] = Rate 62 g/ha, flood test species, Pre-emergence, visual evaluation after twelve to sixteen days
[33] = Rate 125 g/ha, under heading Pre-emergence, flood test species, visual evaluation after twelve to sixteen days
[34] = Rate 250 g/ha, Pre-emergence (flood test species), scale 0 to 10, 0 is no effect, 10 is complete control
[35] = Rate 500 g/ha, Pre-emergence section of Table B, 0 to 10 scale (0 no effect, 10 complete control)

## COc1ccc(N(C(=O)n2oc(=O)n(-c3ccccc3C)c2=O)C(C)C)cc1 [Compound 49]
[1]; [21]
  Redroot pigweed plant response rating: 0
[1]; [22]
  Redroot pigweed plant response rating: 0
[1]; [23]
  Plant response rating, Redroot pigweed: 0
[1]; [24]
  Plant response rating, Redroot pigweed: 0
[1]; [25]
  Plant response rating, Redroot pigweed: 0
[1]; [26]
  Redroot pigweed plant response rating: 0
[1]; [27]
  Redroot pigweed plant response rating: 0
[1]; [28]
  Redroot pigweed plant response rating: 0
[2]; [21]
  Sugarbeets plant response rating: 0
[2]; [22]
  Sugarbeets plant response rating: 0
[2]; [23]
  Plant response rating, Sugarbeets: 0
[2]; [24]
  Plant response rating, Sugarbeets: 0
[2]; [25]
  Plant response rating, Sugarbeets: 0
[2]; [26]
  Sugarbeets plant response rating: 0
[2]; [27]
  Sugarbeets plant response rating: 0
[2]; [28]
  Sugarbeets plant response rating: 0
[3]; [21]
  Cocklebur plant response rating: 0
[3]; [22]
  Cocklebur plant response rating: 0
[3]; [23]
  Plant response rating, Cocklebur: 0
[3]; [24]
  Plant response rating, Cocklebur: 0
[3]; [25]
  Plant response rating, Cocklebur: 0
[3]; [26]
  Cocklebur plant response rating: 0
[3]; [27]
  Cocklebur plant response rating: 0
[3]; [28]
  Cocklebur plant response rating: 0
[4]; [21]
  Giant foxtail plant response rating: 1
[4]; [22]
  Giant foxtail plant response rating: 9
[4]; [23]
  Plant response rating, Giant foxtail: 8
[4]; [24]
  Plant response rating, Giant foxtail: 8
[4]; [25]
  Plant response rating, Giant foxtail: 10
[4]; [26]
  Giant foxtail plant response rating: 10
[4]; [27]
  Giant foxtail plant response rating: 4
[4]; [28]
  Giant foxtail plant response rating: 9
[5]; [29]
  Rice plant response rating: 0
[6]; [21]
  Nutsedge plant response rating: 0
[6]; [22]
  Nutsedge plant response rating: 0
[6]; [23]
  Plant response rating, Nutsedge: 0
[6]; [24]
  Plant response rating, Nutsedge: 0
[6]; [25]
  Plant response rating, Nutsedge: 0
[6]; [26]
  Nutsedge plant response rating: 0
[6]; [27]
  Nutsedge plant response rating: 0
[6]; [28]
  Nutsedge plant response rating: 0
[7]; [21]
  Velvetleaf plant response rating: 0
[7]; [22]
  Velvetleaf plant response rating: 0
[7]; [23]
  Plant response rating, Velvetleaf: 0
[7]; [24]
  Plant response rating, Velvetleaf: 0
[7]; [25]
  Plant response rating, Velvetleaf: 0
[7]; [26]
  Velvetleaf plant response rating: 0
[7]; [27]
  Velvetleaf plant response rating: 0
[7]; [28]
  Velvetleaf plant response rating: 0
[8]; [21]
  Soybean plant response rating: 1
[8]; [22]
  Soybean plant response rating: 1
[8]; [23]
  Plant response rating, Soybean: 0
[8]; [24]
  Plant response rating, Soybean: 0
[8]; [25]
  Plant response rating, Soybean: 0
[8]; [26]
  Soybean plant response rating: 0
[8]; [27]
  Soybean plant response rating: 1
[8]; [28]
  Soybean plant response rating: 1
[9]; [21]
  Blackgrass plant response rating: 0
[9]; [22]
  Blackgrass plant response rating: 0
[9]; [23]
  Plant response rating, Blackgrass: 0
[9]; [24]
  Plant response rating, Blackgrass: 0
[9]; [25]
  Plant response rating, Blackgrass: 0
[9]; [26]
  Blackgrass plant response rating: 0
[9]; [27]
  Blackgrass plant response rating: 0
[9]; [28]
  Blackgrass plant response rating: 0
[10]; [21]
  B. signalgrass plant response rating: 0
[10]; [22]
  B. signalgrass plant response rating: 0
[10]; [23]
  Plant response rating, B. signalgrass: 0
[10]; [24]
  Plant response rating, B. signalgrass: 0
[10]; [25]
  Plant response rating, B. signalgrass: 0
[10]; [26]
  B. signalgrass plant response rating: 0
[10]; [27]
  B. signalgrass plant response rating: 0
[10]; Rate 500 g/ha, Postemergence, scale of 0 to 10 where 0 is no effect and 10 is complete control
  B. signalgrass plant response rating: 0
[11]; [29]
  Ducksalad plant response rating: 0
[12]; [21]
  Rape plant response rating: 0
[12]; [22]
  Rape plant response rating: 0
[12]; [23]
  Plant response rating, Rape: 0
[12]; [24]
  Plant response rating, Rape: 0
[12]; [25]
  Plant response rating, Rape: 0
[12]; [26]
  Rape plant response rating: 0
[12]; [27]
  Rape plant response rating: 0
[12]; [28]
  Rape plant response rating: 0
[13]; [21]
  Corn plant response rating: 0
[13]; [22]
  Corn plant response rating: 0
[13]; [23]
  Plant response rating, Corn: 0
[13]; [24]
  Plant response rating, Corn: 0
[13]; [25]
  Plant response rating, Corn: 0
[13]; [26]
  Corn plant response rating: 0
[13]; [27]
  Corn plant response rating: 0
[13]; [28]
  Corn plant response rating: 0
[14]; [21]
  Morningglory plant response rating: 0
[14]; [22]
  Morningglory plant response rating: 0
[14]; [23]
  Plant response rating, Morningglory: 0
[14]; [24]
  Plant response rating, Morningglory: 0
[14]; [25]
  Plant response rating, Morningglory: 0
[14]; [26]
  Morningglory plant response rating: 0
[14]; [27]
  Morningglory plant response rating: 0
[14]; [28]
  Morningglory plant response rating: 3
[15]; [21]
  Bedstraw plant response rating: 0
[15]; [22]
  Bedstraw plant response rating: 5
[15]; [23]
  Plant response rating, Bedstraw: 0
[15]; [24]
  Plant response rating, Bedstraw: 0
[15]; [25]
  Plant response rating, Bedstraw: 0
[15]; [26]
  Bedstraw plant response rating: 0
[15]; [27]
  Bedstraw plant response rating: 0
[16]; [21]
  Wheat plant response rating: 0
[16]; [22]
  Wheat plant response rating: 0
[16]; [23]
  Plant response rating, Wheat: 0
[16]; [24]
  Plant response rating, Wheat: 0
[16]; [25]
  Plant response rating, Wheat: 0
[16]; [26]
  Wheat plant response rating: 0
[16]; [27]
  Wheat plant response rating: 0
[16]; [28]
  Wheat plant response rating: 0
[17]; [21]
  Crabgrass plant response rating: 0
[17]; [22]
  Crabgrass plant response rating: 8
[17]; [23]
  Plant response rating, Crabgrass: 2
[17]; [24]
  Plant response rating, Crabgrass: 7
[17]; [25]
  Plant response rating, Crabgrass: 9
[17]; [26]
  Crabgrass plant response rating: 9
[17]; [27]
  Crabgrass plant response rating: 1
[17]; [28]
  Crabgrass plant response rating: 9
[18]; [21]
  Wild oats plant response rating: 0
[18]; [22]
  Wild oats plant response rating: 0
[18]; [24]
  Plant response rating, Wild oats: 0
[18]; [25]
  Plant response rating, Wild oats: 0
[18]; [26]
  Wild oats plant response rating: 0
[18]; [27]
  Wild oats plant response rating: 0
[18]; [28]
  Wild oats plant response rating: 0

## CCN(CC)C(=O)n1oc(=O)n(Cc2ccccc2C)c1=O [Compound 84]
[19]; [21]
  Barnyardgrass plant response rating: 0
[19]; [29]
  Barnyardgrass plant response rating: 0
[19]; [30]
  Barnyardgrass plant response rating: 0
[19]; [31]
  Barnyardgrass plant response rating: 0
[20]; [21]
  S. Flatsedge plant response rating: 0
[20]; [29]
  S. Flatsedge plant response rating: 0
[20]; [30]
  S. Flatsedge plant response rating: 0
[20]; [31]
  S. Flatsedge plant response rating: 0
[5]; [21]
  Rice plant response rating: 0
[5]; [29]
  Rice plant response rating: 0
[5]; [30]
  Rice plant response rating: 0
[5]; [31]
  Rice plant response rating: 0
[11]; [21]
  Ducksalad plant response rating: 0
[11]; [29]
  Ducksalad plant response rating: 0
[11]; [30]
  Ducksalad plant response rating: 0
[11]; [31]
  Ducksalad plant response rating: 0

## CC(C)N(C(=O)n1oc(=O)n(CCc2ccccc2)c1=O)c1ccc(Cl)cc1 [Compound 538]
[19]; [32]
  Plant response rating, Barnyardgrass (0 to 10 scale, 0 is no effect, 10 is complete control): 0
[19]; [33]
  Barnyardgrass plant response rating (0 to 10 scale, 0 is no effect, 10 is complete control): 0
[19]; [34]
  Barnyardgrass plant response rating: 0
[19]; [35]
  Barnyardgrass plant response rating: 0
[20]; [32]
  Plant response rating, S. Flatsedge (0 to 10 scale, 0 is no effect, 10 is complete control): 0
[20]; [33]
  S. Flatsedge plant response rating (0 to 10 scale, 0 is no effect, 10 is complete control): 0
[20]; [34]
  S. Flatsedge plant response rating: 0
[20]; [35]
  S. Flatsedge plant response rating: 0
[11]; [32]
  Plant response rating, Ducksalad (0 to 10 scale, 0 is no effect, 10 is complete control): 0
[11]; [33]
  Ducksalad plant response rating (0 to 10 scale, 0 is no effect, 10 is complete control): 0
[11]; [34]
  Ducksalad plant response rating: 0
[11]; [35]
  Ducksalad plant response rating: 0

Source: patent publication US6737383B1, “Herbicidal oxadiazolidines” (priority 1999, dated 2004)
